Calls of active or inactive are those of the source. The calls are words filed in the database; no cut-off is given here.
Legend:
[1] = molecular target: Trypsin (Homo sapiens) (UniProt P07477+P07478+P35030); assay: Inhibition of trypsin (unknown origin) at 10 uM relative to control; assay type: protein assay
[2] = molecular target: Cathepsin B (Homo sapiens) (UniProt P07858); assay: Inhibition of cathepsin B (unknown origin) at 100 nM relative to control
[3] = molecular target: Caspase-4 (Homo sapiens) (UniProt P49662); assay: Inhibition of caspase-4 (unknown origin) at 10 uM
[4] = molecular target: Cathepsin S (Homo sapiens) (UniProt P25774); assay: Inhibition of cathepsin S (unknown origin) at 10 uM relative to control
[5] = molecular target: T1, Cathepsin K (Homo sapiens) (UniProt P43235); assay: Inhibition of cathepsin K (unknown origin) at 1 uM relative to control
T1 sequence (whole entry): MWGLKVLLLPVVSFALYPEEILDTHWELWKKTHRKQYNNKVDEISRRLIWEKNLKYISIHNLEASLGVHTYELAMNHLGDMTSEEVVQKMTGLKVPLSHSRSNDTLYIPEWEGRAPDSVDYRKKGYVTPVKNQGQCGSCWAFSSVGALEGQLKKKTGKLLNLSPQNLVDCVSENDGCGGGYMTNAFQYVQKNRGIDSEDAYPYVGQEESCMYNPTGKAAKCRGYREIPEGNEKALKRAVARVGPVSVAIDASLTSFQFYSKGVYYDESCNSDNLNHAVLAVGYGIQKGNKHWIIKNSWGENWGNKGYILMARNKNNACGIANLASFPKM

[6] = molecular target: Kallikrein-2 (Homo sapiens) (UniProt P20151); assay: Inhibition of KLK2 (unknown origin) at 10 uM
[7] = molecular target: Cathepsin S (Homo sapiens) (UniProt P25774); assay: Inhibition of cathepsin S (unknown origin) at 1 uM relative to control
[8] = molecular target: Cathepsin B (Homo sapiens) (UniProt P07858); assay: Inhibition of cathepsin B (unknown origin) at 10 uM relative to control
[9] = molecular target: Caspase-8 (Homo sapiens) (UniProt Q14790); assay: Inhibition of caspase-8 (unknown origin) at 10 uM
[10] = molecular target: Caspase-6 (Homo sapiens) (UniProt P55212); assay: Inhibition of caspase-6 (unknown origin) at 10 uM
[11] = molecular target: Prothrombin (Homo sapiens) (UniProt P00734); assay: Inhibition of thrombin (unknown origin) at 1 uM relative to control
[12] = molecular target: Legumain (Homo sapiens) (UniProt Q99538); assay: Inhibition of legumain (unknown origin) at 10 uM
[13] = molecular target: T1, Cathepsin K (Homo sapiens); assay: Inhibition of cathepsin K (unknown origin) at 10 uM relative to control
[14] = molecular target: Procathepsin L (Homo sapiens) (UniProt P07711); assay: Inhibition of cathepsin L (unknown origin) at 10 uM relative to control
[15] = molecular target: Coagulation factor X (Homo sapiens) (UniProt P00742); assay: Inhibition of factor Xa (unknown origin) at 10 uM
[16] = molecular target: Caspase-9 (Homo sapiens) (UniProt P55211); assay: Inhibition of caspase-9 (unknown origin) at 10 uM
[17] = molecular target: Cathepsin B (Homo sapiens) (UniProt P07858); assay: Inhibition of cathepsin B (unknown origin) at 1 uM relative to control
[18] = molecular target: Caspase-5 (Homo sapiens) (UniProt P51878); assay: Inhibition of caspase-5 (unknown origin) at 10 uM
[19] = molecular target: Caspase-3 (Homo sapiens) (UniProt P42574); assay: Inhibition of caspase-3 (unknown origin) at 10 uM
[20] = molecular target: Cathepsin G (Homo sapiens) (UniProt P08311); assay: Inhibition of cathepsin G (unknown origin) at 10 uM
[21] = molecular target: Cathepsin S (Homo sapiens) (UniProt P25774); assay: Inhibition of cathepsin S (unknown origin) at 100 nM relative to control

Sequence of Cathepsin S (Homo sapiens) (P25774 115-331 limits assumed): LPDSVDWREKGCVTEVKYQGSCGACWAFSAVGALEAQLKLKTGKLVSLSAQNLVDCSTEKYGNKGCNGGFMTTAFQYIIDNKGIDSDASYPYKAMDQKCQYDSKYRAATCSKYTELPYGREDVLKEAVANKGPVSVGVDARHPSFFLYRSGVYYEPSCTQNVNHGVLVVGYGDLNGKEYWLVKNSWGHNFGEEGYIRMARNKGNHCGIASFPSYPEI
Sequence of Kallikrein-2 (Homo sapiens) (P20151 whole entry): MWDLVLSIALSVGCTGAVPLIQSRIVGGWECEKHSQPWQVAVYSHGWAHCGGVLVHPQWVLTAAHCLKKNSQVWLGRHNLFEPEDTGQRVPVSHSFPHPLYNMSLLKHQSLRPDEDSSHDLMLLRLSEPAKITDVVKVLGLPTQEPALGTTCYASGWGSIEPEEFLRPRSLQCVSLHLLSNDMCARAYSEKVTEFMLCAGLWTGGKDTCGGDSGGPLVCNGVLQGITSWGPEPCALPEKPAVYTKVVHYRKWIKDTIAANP
Sequence of Coagulation factor X (Homo sapiens) (P00742 41-179 limits assumed): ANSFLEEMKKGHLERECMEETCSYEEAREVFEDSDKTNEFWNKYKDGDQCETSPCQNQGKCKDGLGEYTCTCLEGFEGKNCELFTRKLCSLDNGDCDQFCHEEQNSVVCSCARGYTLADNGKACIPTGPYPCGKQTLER
Sequence of Coagulation factor X (Homo sapiens) (P00742 235-488 limits assumed): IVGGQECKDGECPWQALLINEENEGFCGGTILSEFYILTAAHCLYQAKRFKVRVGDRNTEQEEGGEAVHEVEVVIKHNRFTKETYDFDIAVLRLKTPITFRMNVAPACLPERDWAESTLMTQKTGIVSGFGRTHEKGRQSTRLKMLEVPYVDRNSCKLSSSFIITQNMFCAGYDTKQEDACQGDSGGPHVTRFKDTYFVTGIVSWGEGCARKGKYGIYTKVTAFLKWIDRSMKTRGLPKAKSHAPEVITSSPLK
Sequence of Caspase-5 (Homo sapiens) (P51878 137-327 limits assumed): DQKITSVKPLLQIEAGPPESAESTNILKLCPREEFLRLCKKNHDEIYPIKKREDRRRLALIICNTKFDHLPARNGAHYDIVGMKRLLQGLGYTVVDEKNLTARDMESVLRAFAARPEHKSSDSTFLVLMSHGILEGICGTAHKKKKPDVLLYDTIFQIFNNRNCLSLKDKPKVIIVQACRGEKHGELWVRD
Sequence of Caspase-5 (Homo sapiens) (P51878 347-434 limits assumed): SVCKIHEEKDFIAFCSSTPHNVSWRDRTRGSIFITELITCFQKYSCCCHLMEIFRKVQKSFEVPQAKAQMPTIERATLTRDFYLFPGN
Sequence of Caspase-8 (Homo sapiens) (Q14790 217-374 limits assumed): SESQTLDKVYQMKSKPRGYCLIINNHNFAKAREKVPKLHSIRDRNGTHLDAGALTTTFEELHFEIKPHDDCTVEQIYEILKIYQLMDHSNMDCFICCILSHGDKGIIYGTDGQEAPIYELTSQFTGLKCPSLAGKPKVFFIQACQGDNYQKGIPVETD
Sequence of Caspase-8 (Homo sapiens) (Q14790 385-479 limits assumed): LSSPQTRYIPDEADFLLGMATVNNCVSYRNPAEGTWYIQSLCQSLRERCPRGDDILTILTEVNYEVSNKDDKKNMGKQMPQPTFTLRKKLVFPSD
Sequence of Procathepsin L (Homo sapiens) (P07711 114-333 limits assumed): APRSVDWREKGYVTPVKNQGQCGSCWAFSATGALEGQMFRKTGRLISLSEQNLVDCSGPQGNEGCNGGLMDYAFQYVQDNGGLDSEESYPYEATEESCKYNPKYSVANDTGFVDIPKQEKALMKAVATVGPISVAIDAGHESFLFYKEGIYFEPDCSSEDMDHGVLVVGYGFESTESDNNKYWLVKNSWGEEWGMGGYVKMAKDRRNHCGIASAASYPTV
Sequence of Cathepsin G (Homo sapiens) (P08311 whole entry): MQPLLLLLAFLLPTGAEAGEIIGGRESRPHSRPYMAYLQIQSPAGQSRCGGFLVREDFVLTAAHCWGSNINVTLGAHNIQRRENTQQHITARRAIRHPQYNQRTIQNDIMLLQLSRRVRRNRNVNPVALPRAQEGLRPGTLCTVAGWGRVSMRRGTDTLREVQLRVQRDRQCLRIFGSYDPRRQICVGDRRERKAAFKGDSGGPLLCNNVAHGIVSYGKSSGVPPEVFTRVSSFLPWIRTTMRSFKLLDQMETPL
Sequence of Caspase-6 (Homo sapiens) (P55212 24-179 limits assumed): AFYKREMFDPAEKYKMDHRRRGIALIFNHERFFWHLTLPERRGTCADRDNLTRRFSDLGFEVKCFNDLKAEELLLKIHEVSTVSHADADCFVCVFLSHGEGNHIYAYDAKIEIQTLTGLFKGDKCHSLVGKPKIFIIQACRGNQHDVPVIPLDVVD
Sequence of Caspase-6 (Homo sapiens) (P55212 194-293 limits assumed): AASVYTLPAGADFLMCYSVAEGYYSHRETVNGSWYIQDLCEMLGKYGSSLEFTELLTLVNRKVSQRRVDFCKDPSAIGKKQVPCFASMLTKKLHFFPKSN
Sequence of Caspase-3 (Homo sapiens) (P42574 29-175 limits assumed): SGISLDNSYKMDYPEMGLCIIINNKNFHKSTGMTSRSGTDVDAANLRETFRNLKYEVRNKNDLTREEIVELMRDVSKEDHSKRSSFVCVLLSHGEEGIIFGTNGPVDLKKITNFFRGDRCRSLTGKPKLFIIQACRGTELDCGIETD
Sequence of Caspase-3 (Homo sapiens) (P42574 176-277 limits assumed): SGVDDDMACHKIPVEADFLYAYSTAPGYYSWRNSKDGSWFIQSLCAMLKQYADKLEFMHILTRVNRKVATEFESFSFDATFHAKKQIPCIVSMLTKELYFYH
Sequence of Caspase-4 (Homo sapiens) (P49662 81-270 limits assumed): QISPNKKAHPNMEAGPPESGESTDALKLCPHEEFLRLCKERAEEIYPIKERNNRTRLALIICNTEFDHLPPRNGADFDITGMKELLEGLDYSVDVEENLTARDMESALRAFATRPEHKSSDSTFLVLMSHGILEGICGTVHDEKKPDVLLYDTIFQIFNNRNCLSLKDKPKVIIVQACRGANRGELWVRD
Sequence of Caspase-4 (Homo sapiens) (P49662 290-377 limits assumed): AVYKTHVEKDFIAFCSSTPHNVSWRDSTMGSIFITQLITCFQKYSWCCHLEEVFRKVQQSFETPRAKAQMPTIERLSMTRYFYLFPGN
Sequence of Legumain (Homo sapiens) (Q99538 whole entry): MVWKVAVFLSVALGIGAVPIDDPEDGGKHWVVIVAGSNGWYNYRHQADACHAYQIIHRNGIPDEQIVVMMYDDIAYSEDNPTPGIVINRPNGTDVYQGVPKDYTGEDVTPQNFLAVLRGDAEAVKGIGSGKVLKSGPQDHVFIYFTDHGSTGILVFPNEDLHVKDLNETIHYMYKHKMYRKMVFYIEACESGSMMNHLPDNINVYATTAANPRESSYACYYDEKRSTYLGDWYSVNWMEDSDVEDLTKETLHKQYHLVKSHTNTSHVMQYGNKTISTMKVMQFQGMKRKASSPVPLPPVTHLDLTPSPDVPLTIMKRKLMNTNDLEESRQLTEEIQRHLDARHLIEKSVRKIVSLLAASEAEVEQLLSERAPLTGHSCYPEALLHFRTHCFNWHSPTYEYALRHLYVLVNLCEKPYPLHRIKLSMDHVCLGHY
Sequence of Caspase-9 (Homo sapiens) (P55211 1-315 limits assumed): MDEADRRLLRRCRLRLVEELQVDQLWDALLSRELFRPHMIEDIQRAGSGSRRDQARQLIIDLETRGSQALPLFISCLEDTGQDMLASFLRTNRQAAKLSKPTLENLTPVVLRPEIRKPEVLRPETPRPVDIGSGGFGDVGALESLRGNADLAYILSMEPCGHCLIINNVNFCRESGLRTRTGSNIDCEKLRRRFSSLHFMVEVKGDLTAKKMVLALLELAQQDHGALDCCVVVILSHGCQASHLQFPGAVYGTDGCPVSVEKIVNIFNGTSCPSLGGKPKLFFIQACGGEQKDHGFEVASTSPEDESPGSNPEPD
Sequence of Caspase-9 (Homo sapiens) (P55211 331-416 limits assumed): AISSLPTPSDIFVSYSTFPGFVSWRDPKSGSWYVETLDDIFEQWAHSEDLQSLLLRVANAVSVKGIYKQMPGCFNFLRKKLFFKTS

inhibition [1]: 95.3%
inhibition [2]: 34.2%
inhibition [3]: Active
inhibition [4]: 99.1%
inhibition [5]: 97.1%
inhibition [6]: Active
inhibition [7]: 83.9%
inhibition [8]: 99.6%
inhibition [9]: Active
inhibition [10]: Active
inhibition [11]: 25.2%
inhibition [12]: Active
inhibition [13]: 98.7%
inhibition [14]: 44.9%
inhibition [15]: Active
inhibition [16]: Active
inhibition [17]: 92.5%
inhibition [18]: Active
inhibition [19]: Active
inhibition [20]: Active
inhibition [21]: 78.2%
SMILES: CC(C)[C@H](NC(=O)c1ccc(Br)cc1)C(=O)N1CCC[C@H]1C(=O)N[C@@H](CCCNC(=N)N)C(=O)CF

— ChEMBL document CHEMBL4340530, “Peptide-based covalent inhibitors of MALT1 paracaspase” (Bioorg Med Chem Lett, 2019)
